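Following 48 hours of exposure in 96-well plates, responses at five concentrations were used to interpolate endpoints linearly. At the GI50, growth is halved.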 The source made the active and inactive calls. Cut-off read from the data, not from the text of the source: active = GI50 up to about 1.1 µM and inactive = higher.
How the values were obtained:
Experiment in all cases: inhibition of tumour cell growth, NCI panel, 48 h
786-0 = system: 786-0
A498 = system: A498
A549 = system: A549
ACHN = system: ACHN
CCRF-CEM = system: CCRF-CEM
COLO 205 = system: COLO 205
DLD-1 = system: DLD-1
DMS-114 = system: DMS-114
DMS-273 = system: DMS-273
EKVX = system: EKVX
HCC 2998 = system: HCC 2998
HCT-116 = system: HCT-116
HCT-15 = system: HCT-15
HL-60 = system: HL-60
HOP-18 = system: HOP-18
HOP-62 = system: HOP-62
HT-29 = system: HT-29
IGROV-1 = system: IGROV-1
K562 = system: K562
KM-20L2 = system: KM-20L2
KM12 = system: KM12
LOX IMVI = system: LOX IMVI
LXFL 529 = system: LXFL 529
M14 = system: M14
M19-MEL = system: M19-MEL
MOLT-4 = system: MOLT-4
Malme-3M = system: Malme-3M
NCI-H226 = system: NCI-H226
NCI-H23 = system: NCI-H23
NCI-H460 = system: NCI-H460
NCI-H522 = system: NCI-H522
OVCAR-3 = system: OVCAR-3
OVCAR-4 = system: OVCAR-4
OVCAR-5 = system: OVCAR-5
OVCAR-8 = system: OVCAR-8
RPMI-8226 = system: RPMI-8226
RXF 393 = system: RXF 393
SF-295 = system: SF-295
SF-539 = system: SF-539
SK-MEL-28 = system: SK-MEL-28
SK-MEL-2 = system: SK-MEL-2
SK-MEL-5 = system: SK-MEL-5
SK-OV-3 = system: SK-OV-3
SN12C = system: SN12C
SNB-19 = system: SNB-19
SNB-75 = system: SNB-75
SNB-78 = system: SNB-78
SR = system: SR
SW-620 = system: SW-620
TK-10 = system: TK-10
U-251 = system: U-251
UACC-257 = system: UACC-257
UACC-62 = system: UACC-62
UO-31 = system: UO-31
XF498 = system: XF498
HOP-92 = system: HOP-92
SF-268 = system: SF-268

For `CC(C)(C)C1CCP(=O)(c2ccccc2)CC1` (stereo not drawn), the GI50 (786-0) was > 100 µM (inactive), the GI50 (A498) was > 100 µM (inactive) and the GI50 (A549) was > 100 µM (inactive). The GI50 (ACHN) was > 100 µM (inactive), the GI50 (CCRF-CEM) was > 100 µM (inactive) and the GI50 (COLO 205) was > 100 µM (inactive). The GI50 (DLD-1) was > 100 µM (inactive), the GI50 (DMS-114) was > 100 µM (inactive) and the GI50 (DMS-273) was > 100 µM (inactive). The GI50 (EKVX) was > 100 µM (inactive), the GI50 (HCC 2998) was > 100 µM (inactive) and the GI50 (HCT-116) was > 100 µM (inactive). The GI50 (HCT-15) was greater than 100 µM, the GI50 (HL-60) was > 100 µM (inactive) and the GI50 (HOP-18) was > 100 µM (inactive). The GI50 (HOP-62) was > 100 µM (inactive), the GI50 (HT-29) was > 100 µM (inactive) and the GI50 (IGROV-1) was > 100 µM (inactive). The GI50 (K562) was > 100 µM (inactive), the GI50 (KM-20L2) was > 100 µM (inactive) and the GI50 (KM12) was > 100 µM (inactive). The GI50 (LOX IMVI) was > 100 µM (inactive), the GI50 (LXFL 529) was > 100 µM (inactive) and the GI50 (M14) was > 100 µM (inactive). The GI50 (M19-MEL) was > 100 µM (inactive), the GI50 (MOLT-4) was > 100 µM (inactive) and the GI50 (Malme-3M) was > 100 µM (inactive). The GI50 (NCI-H226) was > 100 µM (inactive), the GI50 (NCI-H23) was > 100 µM (inactive) and the GI50 (NCI-H460) was > 100 µM (inactive). The GI50 (NCI-H522) was > 100 µM (inactive), the GI50 (OVCAR-3) was > 100 µM (inactive) and the GI50 (OVCAR-4) was > 100 µM (inactive). For the same molecule, the GI50 (OVCAR-5) was > 100 µM (inactive), the GI50 (OVCAR-8) was > 100 µM (inactive) and the GI50 (RPMI-8226) was > 100 µM (inactive). The GI50 (RXF 393) was > 100 µM (inactive), the GI50 (SF-295) was > 100 µM (inactive) and the GI50 (SF-539) was > 100 µM (inactive). The GI50 (SK-MEL-28) was > 100 µM (inactive), the GI50 (SK-MEL-2) was > 100 µM (inactive) and the GI50 (SK-MEL-5) was > 100 µM (inactive). For the same molecule, the GI50 (SK-OV-3) was > 100 µM (inactive), the GI50 (SN12C) was > 100 µM (inactive) and the GI50 (SNB-19) was > 100 µM (inactive). The GI50 (SNB-75) was > 100 µM (inactive), the GI50 (SNB-78) was > 100 µM (inactive) and the GI50 (SR) was > 100 µM (inactive). The GI50 (SW-620) was > 100 µM (inactive), the GI50 (TK-10) was > 100 µM (inactive) and the GI50 (U-251) was > 100 µM (inactive). For the same molecule, the GI50 (UACC-257) was > 100 µM (inactive), the GI50 (UACC-62) was > 100 µM (inactive) and the GI50 (UO-31) was > 100 µM (inactive). For the same molecule, the GI50 (XF498) was 2.1 µM (inactive).
For `CCCCCCCCCCCCCC(=O)CSCCNC(=O)CCNC(=O)[C@@H](O)C(C)(C)COP(=O)(O)OP(=O)(O)OCC1OC(n2cnc3c(N)ncnc32)C(O)C1OP(=O)(O)O` (stereo partly drawn), the GI50 (786-0) was 15.5 µM (inactive), the GI50 (A498) was 18.4 µM (inactive) and the GI50 (A549) was 20.1 µM (inactive). The GI50 (ACHN) was 18.2 µM (inactive), the GI50 (CCRF-CEM) was 24.4 µM (inactive) and the GI50 (COLO 205) was 13.1 µM (inactive). The GI50 (DLD-1) was 19 µM (inactive), the GI50 (DMS-114) was 15.6 µM (inactive) and the GI50 (DMS-273) was 11.2 µM (inactive). For the same molecule, the GI50 (EKVX) was 17.9 µM (inactive), the GI50 (HCC 2998) was 16.5 µM (inactive) and the GI50 (HCT-116) was 15.8 µM (inactive). For the same molecule, the GI50 (HCT-15) was 17.1 µM, the GI50 (HL-60) was 20.5 µM (inactive) and the GI50 (HOP-18) was 17.5 µM (inactive). For the same molecule, the GI50 (HOP-62) was 16 µM (inactive), the GI50 (HOP-92) was 11.5 µM (inactive) and the GI50 (HT-29) was 18.8 µM (inactive). For the same molecule, the GI50 (IGROV-1) was 13.6 µM (inactive), the GI50 (KM-20L2) was 19.4 µM (inactive) and the GI50 (KM12) was 14.6 µM (inactive). The GI50 (LOX IMVI) was 18.4 µM (inactive), the GI50 (LXFL 529) was 17.5 µM (inactive) and the GI50 (M14) was 18.1 µM (inactive). For the same molecule, the GI50 (M19-MEL) was 18.9 µM (inactive), the GI50 (Malme-3M) was 17.9 µM (inactive) and the GI50 (NCI-H226) was 18.2 µM (inactive). For the same molecule, the GI50 (NCI-H23) was 18.7 µM (inactive), the GI50 (NCI-H460) was 25.6 µM (inactive) and the GI50 (NCI-H522) was 10.6 µM (inactive). The GI50 (OVCAR-3) was 38 µM (inactive), the GI50 (OVCAR-4) was 6.75 µM (inactive) and the GI50 (OVCAR-5) was 32.4 µM (inactive). For the same molecule, the GI50 (OVCAR-8) was 27.4 µM (inactive), the GI50 (RXF 393) was 25 µM (inactive) and the GI50 (SF-268) was 20 µM (inactive). For the same molecule, the GI50 (SF-295) was 13.4 µM (inactive), the GI50 (SF-539) was 16.2 µM (inactive) and the GI50 (SK-MEL-28) was 18.3 µM (inactive). The GI50 (SK-MEL-2) was 17.2 µM (inactive), the GI50 (SK-MEL-5) was 18.9 µM (inactive) and the GI50 (SK-OV-3) was 14.6 µM (inactive). The GI50 (SN12C) was 16.4 µM (inactive), the GI50 (SNB-19) was 18.6 µM (inactive) and the GI50 (SNB-75) was 5.7 µM (inactive). The GI50 (SNB-78) was 15.5 µM (inactive), the GI50 (SW-620) was 19.4 µM (inactive) and the GI50 (TK-10) was 68.2 µM (inactive). The GI50 (U-251) was 18 µM (inactive), the GI50 (UACC-257) was 18.1 µM (inactive) and the GI50 (UACC-62) was 15 µM (inactive). The GI50 (UO-31) was 14.4 µM (inactive) and the GI50 (XF498) was 18.5 µM (inactive).

Source: ChEMBL document CHEMBL1201862, “PubChem BioAssay data set” (2004)
